What was measured:
Format in all cases: in vivo
mice = experiment: Neurotoxicity (TOX), rotarod test, mice
Method: (§1) In mice, the neurological deficit was measured by the rotarod test in which a 1 inch diameter knurled plastic rod rotating at 6 rpm was used. Tests were performed at 0.25 h or 0.5 h of intraperitoneal or oral administration of the certain dose of the compounds KM-568. Each mouse was placed on the rod. If the animal was not able to remain on the rod for at least 1 min in each of three trials, the neurotoxicity was scored. In rats, the neurological deficit was measured in behavioral tests and scored when ataxia and loss of placing response and muscle tone were observed. Tests in rats were performed after 0.5 h of intraperitoneal administration or 1.0 h of oral administration of the certain dose of compound KM-568. TD50s were calculated by probit analysis.

[1] = Neurotoxicity (TOX), rotarod test, mice; conditions: mouse, in vivo, rotarod, 0.25 h, 95% confidence interval in parentheses
Method: as §1

CF-1 mice = experiment: Chemoconvulsant test, bicuculine; conditions: 0.25 h
Method: Initially, compound KM-568 was administered i.p. at 130.0 mg/kg in two groups of CF-1 mice (n = 8). After 0.25 h, the subcutaneous injections of either bicuculine (2.7 mg/kg) or picrotoxin (2.5 mg/kg) were performed. The, animals were placed in isolation cages and observed for 30 min (in a bicuculine assay) or 45 min (in a picrotoxin assay) for the presence or absence of an episode of a clonic seizure.

rats [2] = experiment: Subcutaneous metrazol seizure threshold test (scMET), rats; conditions: for ED50: Rattus norvegicus; for scMET Results (protected/tested animals): i.p.
Method: (§2) In vivo activity testing was performed at the Epilepsy Branch, National Institute of Neurological Disorders and Stroke, National Institutes of Health (NIH, Bethesda, USA) within the Anticonvulsant Screening Program (ASP) (currently known as the Epilepsy Therapy Screening Program (ETSP)). Pharmacological evaluation was planned and performed in accordance with the Institute of Laboratory Resources polices on the humane care of laboratory animals and approved by the University of Utah’s Institutional Animal Care and Use Committee (IACUC). All testing protocols were previously published as well as they are available on the NIH website. In the tests, albino mice Carworth Farms No.1 (CF-1) (Charles River), C57/Bl6 mice (Charles River), Frings mice (University of Utah) or male rats Sprague–Dawley (Charles River) were used. All animals were housed, fed, and handled in a manner consistent with the recommendations in the National Council Publication, ‘Guide for the Care and Use of Laboratory animals’ [51]. The tested compound was suspended in 0.5% methylcellulose.
The tested compound was administered i.p. or p.o. at certain dose. Then, subcutaneous injection of metrazol (syn. pentetrazol, pentylenepentetrazol) dissolved in 0.9% NaCl at the dose of 85 mg/kg (mice) or 70 mg/kg (rats) was performed to induce seizures. Protection was scored if there was not an observed episode of clonic spasm of at least 5 sec.

corneal kindled mice = experiment: Corneal kindled seizure model in mice; conditions: for Average Seizure Score / Results (protected/tested animals): corneal kindled mice, i.p.
Method: Mice were stimulated via corneal electrodes (3 mA, 60 Hz, 3 sec) for an average of 12 days, 4 h apart. Prior to each stimulation, a drop of 0.5% tetracaine hydrochloride in saline was applied to the cornea. After development of five consecutive seizure stages at level 5 according to the Racine scale, animals were considered kindled. The groups of 8 mice received an intraperitoneal injection of appropriate doses of KM-568. […] Mice were scored as protected if the seizure score was less than or equal to three and not protected if the seizure score was more than three, based on the Racine scoring system.

rats [3] = experiment: Maximal electroshock test (MES), rats; conditions: for ED50: Rattus norvegicus, 95% confidence interval in parentheses
Method: as §2
After intraperitoneal or oral administration of compound KM-568 at certain dose, an alternating current at 60 Hz and 50 mA (mice) or 150 mA (rats) was delivered for 0.2 sec via corneal electrodes to induce seizures. Prior to each stimulation, a drop of 0.5% tetracaine hydrochloride in saline was applied to cornea. Protection was defined as the abolition of the hindlimb tonic extension of the seizures.

[4] = tested on: Frings audiogenic seizure-susceptible mice; experiment: Frings audiogenic seizure-susceptible mouse model; conditions: 0.25 h; for Results (protected/tested animals): Frings mice, i.p.
Method: Frings audiogenic seizure-susceptible mice are genetically susceptible to sound-induced reflex seizures. Mice (18–25 g) were administered i.p. compound KM-568 at the doses in the range of 10.0–17.5 mg/kg. Fifteen minutes later, an individual mouse was placed in a round plexiglass jar (15 cm diameter, 18 cm high) and exposed to a sound stimulus of 110 decibels (11 kHz) delivered for 20 sec.

C[C@H](O)CNC(=O)/C=C/c1ccccc1 [KM-568, S(+)-(2E)-N-(2-hydroxypropyl)-3-phenylprop-2-enamide]
TOX Results (animals displaying neurotoxicity/animals used) (mice; i.p., 100 mg/kg, 0.25 h): 0/8 | TOX Results (animals displaying neurotoxicity/animals used) (mice; i.p., 125 mg/kg, 0.25 h): 0/8 | TOX Results (animals displaying neurotoxicity/animals used) (mice; i.p., 138 mg/kg, 0.25 h): 2/8 | TOX Results (animals displaying neurotoxicity/animals used) (mice; i.p., 150 mg/kg, 0.25 h): 5/8 | TOX Results (animals displaying neurotoxicity/animals used) (mice; i.p., 170 mg/kg, 0.25 h): 7/8 | TOX Results (animals displaying neurotoxicity/animals used) (mice; i.p., 200 mg/kg, 0.25 h): 8/8 | TOX Results (animals displaying neurotoxicity/animals used) (mice; p.o., 200 mg/kg): 0/8 | TOX Results (animals displaying neurotoxicity/animals used) (mice; p.o., 300 mg/kg): 3/8 | TOX Results (animals displaying neurotoxicity/animals used) (mice; p.o., 350 mg/kg): 5/8 | TOX Results (animals displaying neurotoxicity/animals used) (mice; p.o., 400 mg/kg): 5/8 | TOX Results (animals displaying neurotoxicity/animals used) (mice; p.o., 500 mg/kg): 7/8 | TD50 at 0.25 h ([1]; ip): 148 mg/kg | TD50 at 0.25 h ([1]; po): 344 mg/kg | ED50 (CF-1 mice; Mus musculus, ip): > 130 mg/kg | Bicuculine Results (protected/tested animals) (CF-1 mice; i.p., 130 mg/kg): 0/8 | ED50 (rats [2]; ip, 0.25 h, 95% confidence interval in parentheses): 41.7 mg/kg | ED50 (rats [2]; po, 1.0 h, doses 62.5, 125.0, 250.0 mg/kg): > 250 mg/kg | scMET Results (protected/tested animals) (rats [2]; 30 mg/kg, 0.25 h): 1/8 | scMET Results (protected/tested animals) (rats [2]; 45 mg/kg, 0.25 h): 4/8 | scMET Results (protected/tested animals) (rats [2]; 60 mg/kg, 0.25 h): 8/8 | scMET Results (protected/tested animals) (rats [2]; 95 mg/kg, 0.25 h): 8/8 | ED50 (corneal kindled mice; Mus musculus, ip, mice, 0.5 h (table title)): 79.2 mg/kg | Average Seizure Score (corneal kindled mice; 57 mg/kg): 4.0 | Results (protected/tested animals) (corneal kindled mice; 57 mg/kg): 1/8 | Average Seizure Score (corneal kindled mice; 84 mg/kg): 3.625 | Results (protected/tested animals) (corneal kindled mice; 84 mg/kg): 5/8 | Average Seizure Score (corneal kindled mice; 115 mg/kg): 0.625 | Results (protected/tested animals) (corneal kindled mice; 115 mg/kg): 7/8 | ED50 (rats [3]; ip, 0.25 h): 27.6 mg/kg | ED50 (rats [3]; po, 1.0 h): 30.8 mg/kg | MES Results (protected/tested animals) (rats [3]; i.p., 15 mg/kg, 0.25 h): 1/8 | MES Results (protected/tested animals) (rats [3]; i.p., 22 mg/kg, 0.25 h): 3/8 | MES Results (protected/tested animals) (rats [3]; i.p., 30 mg/kg, 0.25 h): 5/8 | MES Results (protected/tested animals) (rats [3]; i.p., 60 mg/kg, 0.25 h): 7/8 | MES Results (protected/tested animals) (rats [3]; p.o., 20.0 mg/kg, 1.0 h): 1/8 | MES Results (protected/tested animals) (rats [3]; p.o., 30.0 mg/kg, 1.0 h): 3/8 | MES Results (protected/tested animals) (rats [3]; p.o., 35.0 mg/kg, 1.0 h): 5/8 | MES Results (protected/tested animals) (rats [3]; p.o., 40.0 mg/kg, 1.0 h): 7/8 | Results (protected/tested animals) ([4]; 10.0 mg/kg): 1/8 | Results (protected/tested animals) ([4]; 12.5 mg/kg): 3/8 | Results (protected/tested animals) ([4]; 15.0 mg/kg): 6/8 | Results (protected/tested animals) ([4]; 17.5 mg/kg): 7/8 | ED50 ([4]; Mus musculus, ip): 13.2 mg/kg
